Laboratory results published in patent US20230148599A1, “FUNGICIDAL MIXTURES CONTAINING PYRAZOLE DERIVATIVES” (FMC Corporation, priority 2020, published 2023).

Legend:
Assay type in all cases: in vivo
Conditions in all cases: 50 ppm, 100 = 100% disease control, 0 = no control
Botrytis cinerea = assay: Test E: tomato Botrytis, preventive spray on tomato seedlings
Excerpt: (§1) General protocol for preparing test suspensions for Tests A-F: the test compounds were first dissolved in acetone in an amount equal to 3% of the final volume and then suspended at the desired concentration (in ppm) in acetone and purified water (50/50 mix by volume) containing 250 ppm of the surfactant PEG400 (polyhydric alcohol esters). The resulting test suspensions were then used in Tests A-F.
(§2) The test suspension was sprayed to the point of run-off on tomato seedlings. The following day the seedlings were inoculated with a spore suspension of Botrytis cinerea (the causal agent of tomato Botrytis) and incubated in a saturated atmosphere at 20° C. for 48 h, and then moved to a growth chamber at 24° C. for 3 days, after which time visual disease ratings were made.
(§3) A rating of 100 indicates 100% disease control and a rating of 0 indicates no disease control (relative to the controls). A dash (−) indicates the compound was not tested.

[1] = tested on: Blumeria graminis f. sp. tritici; assay: Test C: wheat powdery mildew, preventive spray on wheat seedlings
Excerpt: as §1
The test suspension was sprayed to the point of run-off on wheat seedlings. The following day the seedlings were inoculated with a spore dust of Blumeria graminis f. sp. tritici, (also known as Erysiphe graminis f. sp. tritici, the causal agent of wheat powdery mildew) and incubated in a growth chamber at 20° C. for 8 days, after which time visual disease ratings were made.
as §3

[2] = tested on: Puccinia recondita f. sp. tritici; assay: Test B: wheat leaf rust, preventive spray on wheat seedlings
Excerpt: as §1
The test solution was sprayed to the point of run-off on wheat seedlings. The following day the seedlings were inoculated with a spore suspension of Puccinia recondita f. sp. tritici (the causal agent of wheat leaf rust) and incubated in a saturated atmosphere at 20° C. for 24 h, and then moved to a growth chamber at 20° C. for 7 days, after which time disease ratings were made.
as §3

Alternaria solani = assay: Test F: tomato early blight, preventive spray on tomato seedlings
Excerpt: as §1
as §2, with “Alternaria solani” for “Botrytis cinerea”, “early blight)” for “Botrytis)”, “27°” for “20°”, “20°” for “24°”
as §3

Septoria tritici = assay: Test A: wheat leaf blotch, preventive spray on wheat seedlings
Excerpt: as §1
The test solution was sprayed to the point of run-off on wheat seedlings. The following day the seedlings were inoculated with a spore suspension of Septoria tritici (the causal agent of wheat leaf blotch) and incubated in a saturated atmosphere at 24° C. for 48 h, and then moved to a growth chamber at 20° C. for 17 days, after which time disease ratings were made.
as §3

Phakopsora pachyrhizi = assay: Test D: Asian soybean rust, preventive spray on soybean seedlings
Excerpt: as §1
The test solution was sprayed to the point of run-off on soybean seedlings. The following day the seedlings were inoculated with a spore suspension of Phakopsora pachyrhizi (the causal agent of Asian soybean rust) and incubated in a saturated atmosphere at 22° C. for 24 h and then moved to a growth chamber at 22° C. for 8 days, after which time visual disease ratings were made.
as §3

Compound | Test E disease control rating (Botrytis cinerea) | Test C disease control rating [1] | Test B disease control rating [2] | Test F disease control rating (Alternaria solani) | Test A disease control rating (Septoria tritici) | Test D disease control rating (Phakopsora pachyrhizi)
CCc1nn(C)c(Nc2ccc(C)cc2[N+](=O)[O-])c1-c1ccc(F)cc1F [compound 175] | 88% | 79% | 86% | 0% | 100% | 0%
Cc1nn(C)c(Nc2c(F)cc(I)cc2[N+](=O)[O-])c1-c1ccc(F)cc1Cl [compound 47] | 95% | 89% | 97% | 96% | 100% | 92%
COc1ccc(Nc2c(-c3c(F)cc(C#N)cc3F)c(C)nn2C)c([N+](=O)[O-])c1 [compound 150] | 100% | 98% | 100% | 99% | 100% | 13%
COc1cc(F)c(-c2c(C)nn(C)c2Nc2ccccc2[N+](=O)[O-])c(F)c1 [compound 147] | 100% | 97% | 86% | 99% | 96% | 0%
Cc1cc(F)c(Nc2c(-c3ccc(C#N)cc3F)c(C)nn2C)c([N+](=O)[O-])c1 [compound 198] | 99% | 95% | 99% | 100% | 99% | 89%
CCc1nn(C)c(Nc2c(F)cc(F)cc2[N+](=O)[O-])c1-c1ccc(F)cc1F [compound 50] | 92% | 100% | 98% | 98% | 100% | 0%
COc1cc(F)c(-c2c(C)nn(C)c2Nc2ccc(F)cc2[N+](=O)[O-])c(F)c1 [compound 83] | 98% | 99% | 91% | 99% | 99% | 0%
Cc1nn(C)c(Nc2c(Cl)cccc2[N+](=O)[O-])c1-c1c(F)cccc1Cl [compound 38] | 88% | 95% | 99% | 0% | 100% | 0%
Cc1cc(Cl)c(Nc2c(-c3ccc(C#N)cc3Cl)c(C)nn2C)c([N+](=O)[O-])c1 [compound 156] | 0% | 66% | 91% | 0% | 91% | 0%
CCc1nn(C)c(Nc2c(F)cc(F)cc2[N+](=O)[O-])c1-c1ccc(F)cc1Cl [compound 95] | 99% | 100% | 100% | 99% | 100% | 84%
CCc1nn(C)c(Nc2c(Cl)cc(Br)cc2[N+](=O)[O-])c1-c1ccc(F)cc1Cl [compound 128] | 99% | 96% | 98% | 33% | 100% | 31%
Cc1nn(C)c(Nc2ccccc2[N+](=O)[O-])c1-c1c(F)cc(F)cc1Br [compound 154] | 99% | 98% | 80% | 51% | 99% | 0%
Cc1nn(C)c(Nc2ccc(OC(C)C)cc2[N+](=O)[O-])c1-c1ccc(F)cc1Cl [compound 104] | 0% | 72% | 0% | 0% | 60% | 0%
Cc1nn(C)c(Nc2c(Cl)cc(Cl)cc2[N+](=O)[O-])c1-c1c(F)cccc1F [compound 96] | 80% | 0% | 95% | 0% | 100% | 0%
Cc1nn(C)c(Nc2c(F)cc(Cl)cc2[N+](=O)[O-])c1-c1ccc(C#N)cc1Cl [compound 115] | 99% | 94% | 100% | 99% | 100% | 77%
Cc1cccc([N+](=O)[O-])c1Nc1c(-c2ccc(Cl)cc2Cl)c(C)nn1C [compound 144] | 0% | 35% | 68% | 0% | 100% | 69%
Cc1nn(C)c(Nc2cc(F)ccc2[N+](=O)[O-])c1-c1ccc(F)cc1Cl [compound 30] | 67% | 91% | 86% | 0% | 100% | 0%
COc1cc(Cl)c(Nc2c(-c3ccc(F)cc3F)c(C)nn2C)c([N+](=O)[O-])c1 [compound 141] | 99% | 99% | 100% | 83% | 99% | 0%
Cc1nn(C)c(Nc2c(F)cc(Br)cc2[N+](=O)[O-])c1-c1ccc(F)cc1Br [compound 191] | 100% | 99% | 100% | 100% | 100% | 13%
Cc1nn(C)c(Nc2ccc(F)cc2[N+](=O)[O-])c1-c1c(F)cccc1Cl [compound 44] | 95% | 98% | 99% | 46% | 100% | 0%
Cc1nn(C)c(Nc2ccc(OCC#N)cc2[N+](=O)[O-])c1-c1ccc(F)cc1Cl [compound 29] | 99% | 87% | 98% | 26% | 97% | 81%
COc1ccc(-c2c(C)nn(C)c2Nc2c(F)cc(Cl)cc2[N+](=O)[O-])c(Cl)c1 [compound 81] | 95% | 89% | 99% | 99% | 100% | 0%
